Results from patent US20140288052A1, “SUBSTITUTED BICYCLIC AZA-HETEROCYCLES AND ANALOGUES AS SIRTUIN MODULATORS” (GlaxoSmithKline, LLC, priority 2011, published 2014).

What was measured:
SIRT1 [1] = biological target: T1, SIRT1 (Homo sapiens, UniProt Q96EB6); test: TAMRA based mass spectrometry assay of SIRT1 deacetylase activation; assay type: biochemical; conditions: TAMRA peptide substrate; for TAMRA EC1.5 (μM): concentration that results in 150% activation of SIRT1; for TAMRA % Fold Act: percent maximum fold activation relative to control (100%)
T1 sequence (Q96EB6 1-747): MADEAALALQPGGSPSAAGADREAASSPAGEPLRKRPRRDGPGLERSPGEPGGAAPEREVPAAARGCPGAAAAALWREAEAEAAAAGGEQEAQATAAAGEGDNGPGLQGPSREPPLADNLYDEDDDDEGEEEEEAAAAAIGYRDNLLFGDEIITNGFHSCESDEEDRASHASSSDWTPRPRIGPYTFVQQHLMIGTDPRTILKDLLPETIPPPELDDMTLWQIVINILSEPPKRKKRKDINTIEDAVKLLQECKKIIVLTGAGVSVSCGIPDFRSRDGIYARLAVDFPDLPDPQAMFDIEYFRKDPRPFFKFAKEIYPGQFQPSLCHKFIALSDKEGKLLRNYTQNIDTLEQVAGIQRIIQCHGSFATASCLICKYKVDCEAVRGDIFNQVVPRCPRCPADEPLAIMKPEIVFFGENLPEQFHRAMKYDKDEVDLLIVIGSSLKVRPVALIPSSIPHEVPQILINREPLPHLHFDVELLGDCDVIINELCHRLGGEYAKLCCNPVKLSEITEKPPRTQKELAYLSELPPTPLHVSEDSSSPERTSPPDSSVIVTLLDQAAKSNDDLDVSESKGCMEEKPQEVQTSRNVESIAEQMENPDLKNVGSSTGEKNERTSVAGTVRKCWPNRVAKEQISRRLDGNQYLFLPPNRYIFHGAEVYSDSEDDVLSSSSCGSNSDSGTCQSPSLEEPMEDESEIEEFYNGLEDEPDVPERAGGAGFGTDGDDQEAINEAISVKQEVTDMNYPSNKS
Method in brief: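 E. coli-expressed N-terminal His-tagged human SIRT1 (10 nM) was incubated 25 min at 25 °C, pH 8 Tris-acetate buffer, with 0.5 μM TAMRA-labelled p53-derived acetyl-peptide, 120 μM NAD+ and varying compound; formic acid stop, mass-spec quantitation of deacetylated product vs DMSO controls. EC1.5 = concentration giving 150% activation.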

SIRT1 [2] = biological target: T1, SIRT1; test: Trp mass spectrometry assay of SIRT1 deacetylase activation; assay type: biochemical; conditions: Trp peptide substrate; for TRP EC1.5 (μM): concentration that results in 150% activation of SIRT1; for TRP % Fold Act: percent maximum fold activation relative to control (100%)
Method in brief: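 His-tagged human SIRT1 (E. coli-expressed, 10 nM) was incubated with 0.5 μM Ac-RHKK(Ac)W-NH2 peptide and 120 μM βNAD+ for 25 min at 25 °C in HEPES pH 7.5, 1500 mM NaCl, with varying compound; formic acid quench. OAADPR or deacetylated peptide was quantified by mass spectrometry against DMSO control. EC1.5 (150% activation) and percent maximum activation were derived.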

Row | SMILES | TAMRA EC1.5 (μM) (SIRT1 [1]) | TAMRA % Fold Act (SIRT1 [1]) | TRP EC1.5 (μM) (SIRT1 [2]) | TRP % Fold Act (SIRT1 [2])
1 | O=C(Nc1ccccn1)c1ccnc2cc(-c3ccccc3C(F)(F)F)nn12 [Compound 75] | B (EC1.5 1−25 μM) | A (Fold activation≧350%) | B (EC1.5 1−25 μM) | B (Fold Activation<350%)
2 | O=C(Nc1ccccn1)c1cc(N2CCOCC2)nn2cc(-c3cccc(F)c3)nc12 [Compound 27] | C (EC1.5>25 μM) | B (Fold Activation<350%) | C (EC1.5>25 μM) | B (Fold Activation<350%)
3 | O=C(Nc1ccncc1)c1cc(N2CCOCC2)nn2cc(-c3ccccc3C(F)(F)F)nc12 [Compound 46] | A (EC1.5<1 μM) | A (Fold activation≧350%) | C (EC1.5>25 μM) | B (Fold Activation<350%)
4 | Cc1cnc(NC(=O)c2ccnn3cc(-c4ccccc4C(F)(F)F)nc23)s1 [Compound 14] | A (EC1.5<1 μM) | B (Fold Activation<350%) | C (EC1.5>25 μM) | B (Fold Activation<350%)
5 | O=C(Nc1ccncc1)c1cc(N2CCOCC2)nn2cc(-c3cccc(F)c3)nc12 [Compound 29] | C (EC1.5>25 μM) | B (Fold Activation<350%) | C (EC1.5>25 μM) | B (Fold Activation<350%)
6 | O=C(Nc1nccs1)c1ccnn2cc(-c3ccccc3C(F)(F)F)nc12 [Compound 13] | A (EC1.5<1 μM) | B (Fold Activation<350%) | A (EC1.5<1 μM) | B (Fold Activation<350%)
7 | O=C(Nc1ccnc2cc(-c3ccccc3C(F)(F)F)nn12)c1cccc(N2CCC2)n1 [Compound 64] | A (EC1.5<1 μM) | B (Fold Activation<350%) | C (EC1.5>25 μM) | B (Fold Activation<350%)

Continued, values first:

Row | TAMRA EC1.5 (μM) (SIRT1 [1]) | TAMRA % Fold Act (SIRT1 [1]) | TRP EC1.5 (μM) (SIRT1 [2]) | TRP % Fold Act (SIRT1 [2]) | SMILES
8 | B (EC1.5 1−25 μM) | B (Fold Activation<350%) | C (EC1.5>25 μM) | B (Fold Activation<350%) | Cc1cnc(NC(=O)c2ccnc3cc(-c4ccccc4C(F)(F)F)nn23)s1 [Compound 80]
9 | B (EC1.5 1−25 μM) | B (Fold Activation<350%) | A (EC1.5<1 μM) | B (Fold Activation<350%) | O=C(Nc1nccs1)c1ccnc2cc(-c3ccccc3C(F)(F)F)nn12 [Compound 79]
10 | B (EC1.5 1−25 μM) | B (Fold Activation<350%) | B (EC1.5 1−25 μM) | B (Fold Activation<350%) | Cc1csc(NC(=O)c2ccnc3cc(-c4ccccc4C(F)(F)F)nn23)n1 [Compound 81]
11 | C (EC1.5>25 μM) | B (Fold Activation<350%) | C (EC1.5>25 μM) | B (Fold Activation<350%) | O=C(Nc1ccnc2cc(-c3cccc(C(F)(F)F)c3)nn12)c1cccc(N2CCC2)n1 [Compound 98]
12 | C (EC1.5>25 μM) | B (Fold Activation<350%) | C (EC1.5>25 μM) | B (Fold Activation<350%) | O=C(Nc1cnccn1)c1ccnc2cc(-c3ccccc3C(F)(F)F)nn12 [Compound 99]
13 | A (EC1.5<1 μM) | A (Fold activation≧350%) | B (EC1.5 1−25 μM) | B (Fold Activation<350%) | O=C(Nc1cccc(CN2CCOCC2)n1)c1ccnc2cc(-c3ccccc3C(F)(F)F)nn12 [Compound 83]
14 | A (EC1.5<1 μM) | A (Fold activation≧350%) | C (EC1.5>25 μM) | B (Fold Activation<350%) | Cn1cnc(C(=O)Nc2ccnc3cc(-c4ccccc4C(F)(F)F)nn23)c1 [Compound 94]
15 | A (EC1.5<1 μM) | A (Fold activation≧350%) | C (EC1.5>25 μM) | B (Fold Activation<350%) | O=C(Nc1cccc(N2CCOCC2)n1)c1ccnc2cc(-c3ccccc3C(F)(F)F)nn12 [Compound 82]
